Laboratory results reported in US20070224301A1, “Compounds from an extract of Artemisia and methods for treating disorders” (priority 2006, published 2007).
One block for each compound: values may come before it.

Assays:
[1] = target: T1, human recombinant ALR2 enzyme (Homo sapiens, UniProt P15121); assay: ALR2 enzyme assay (decrease in NADPH absorbance at 340 nm); assay type: biochemical; settings: for ALR2 inhibitory activity (in words, compared with quercitrin): 3.75 μg/ml where stated
T1 construct: purchased Wako Chemicals USA Inc
Experimental: Human recombinant ALR2 enzyme was purchased from Wako Chemicals USA Inc. Enzyme activity was measured at each step of purification of the extract, by monitoring the decrease in NADPH absorbance at a wavelength of 340 nm (Nishimura et al., Purification and characterization of recombinant aldose reducatse expressed in baculovirus system. Biochim. Biophys. acta. pp. 1078-1171 (1991)), using a spectrophotometer. One hundred micro liters of the reaction mixture contained 100 mM sodium phosphate buffer (pH 6.2), 0.15 mM NADPH, 10 mM DL-Glyceraldehyde and 1 mU of human recombinant ALR2 enzyme. The samples were prepared in 10% DMSO and the final concentration of the samples or the positive control quercitrin was 3.75 μg/ml. The reaction was initiated by adding the enzyme and the change in NADPH absorbance was monitored over seven minutes.

PTP-1B = target: T2, PTP-1B (Homo sapiens, UniProt P18031); assay: PTP-1B activity by PNPP hydrolysis after immunoprecipitation from treated skeletal muscle cells; assay type: cell-based; settings: 20 μg/ml of media; for PTP-1B inhibitory activity (decrease of PTP-1B activity): primary skeletal muscle culture from subjects with type 2 diabetes, 16 hours
T2 construct: Cell lysate was prepared and PTP-1B was immunoprecipitated with specific antibody; endogenous in cells; host or cells: primary skeletal muscle cell culture (subjects with type 2 diabetes)
T2 sequence (P18031 1-435): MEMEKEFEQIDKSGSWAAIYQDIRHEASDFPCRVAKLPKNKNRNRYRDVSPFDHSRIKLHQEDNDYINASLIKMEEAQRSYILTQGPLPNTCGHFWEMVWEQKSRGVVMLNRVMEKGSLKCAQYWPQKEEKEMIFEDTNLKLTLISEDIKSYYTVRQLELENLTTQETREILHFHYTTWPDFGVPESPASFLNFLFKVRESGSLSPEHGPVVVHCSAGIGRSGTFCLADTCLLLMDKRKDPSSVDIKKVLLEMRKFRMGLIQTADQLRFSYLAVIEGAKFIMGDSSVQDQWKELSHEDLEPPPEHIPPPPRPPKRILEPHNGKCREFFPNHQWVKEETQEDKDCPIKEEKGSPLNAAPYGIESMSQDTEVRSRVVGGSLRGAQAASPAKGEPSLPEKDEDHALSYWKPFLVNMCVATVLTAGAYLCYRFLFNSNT
Experimental: The activity of PTP-1B was assayed by hydrolysis of p-nitrophenol phosphate (PNPP). Skeletal muscle cells were incubated overnight (16 hours) with test substance (extract, fractions or pure compounds) at 20 μg/ml of media. Cell lysate was prepared and PTP-1B was immunoprecipitated with specific antibody (Upstate Biotechnology, Lake Placid, N.Y.). The immunoprecipitate was incubated in Phosphatase Reaction Buffer (20 mmol/L HEPES, pH 7.4, 150 mmol/L NaCl, 5 mM dithiothreitol, 1 mmol/L PNPP) for 20 minutes at 37° C. The reaction was stopped with 0.2 mol/L NaOH, and the absorbance at 410 nm was measured. The reactions were run in triplicate (Moeslein et al., The CLK family kinases, CLK1 and CLK2, phosphorylate and activate the tyrosine phosphatase, PTP-1B. J Biol Chem, 274:26697-26704 (1999)).

PTP-1B mRNA = assay: Quantitative real time PCR for PTP-1B gene expression; assay type: cell-based; settings: skeletal muscle cells, 20 μg/ml of media
Experimental: Cells were incubated overnight (16 hours) with test substance (extract, fractions or pure compounds) at 20 μg/ml of media and harvested from the culture treatments at the designated time points. After extraction and quantification of RNA, quantitative real time PCR (qPCR) analysis was carried out using Taqman® one-step RT-PCR Master Mix (Applied Biosystems, Branchburg, N.J.). 20 ng of total RNA were added per 50 μl reaction with sequence-specific primers (200 nM) and Taqman® probes (200 nM) as indicated here, PTP-1B probe; 5′FAM d(AGTGATGGAGAAAGGTT)BHQ-1 3′. PTP-1B forward primer; 5′ d([…])3′ and PTP-1B reverse primer; 5′ d([…])3′. Primers and probes were designed by and purchased from Applied Biosystems. qPCR assays were carried out in triplicate on an ABI Prism 7700 sequence detection system. […] The threshold was set above the non-template control background and within the linear phase of target gene amplification to calculate the cycle number at which the transcript was detected (denoted CT). Gene expression values were calculated based on the standard curve of each target gene (RNA of control cells with two-fold serial dilutions from 200 ng to 3.125 ng) and normalized by the reference housekeeping gene β-Actin (1). Results were expressed as percentage change of control (Applied Biosystems (2001) Applied Biosystems User Bulletin Number 2, Foster City, Calif.).

PEPCK gene expression = assay: PEPCK gene inhibition assay (Dex/cAMP-induced, qPCR) in H4IIE hepatoma cells; assay type: cell-based, rat; settings: 25 μg/ml
Experimental: H4IIE hepatoma cells (ATCC CRL-1600) were plated in 24-well tissue culture plates (Greiner Bio One) and were grown to confluence in Dulbecco's modified Eagle's medium (DMEM) containing 2.5% (v/v) newborn calf serum and 2.5% (v/v) fetal calf serum. Cells were treated for 8 hours with 500 nM dexamethasone and 0.1 mM cAMP (Dex/cAMP, both Sigma) to induce PEPCK gene expression and different concentrations or volumes of each of the tested compounds, plant extract or […] of Insulin. The fractions were tested at 50 μg/ml of media and the compounds were tested at the doses of 2.5 μg/ml, 5 μg/ml and 10 μg/ml and 25 μg/ml. Three wells were allocated for each treatment as well as for a negative control (untreated cells).
Total RNA was extracted from H4IIE rat hepatoma cells using Trizol reagent (Invitrogen Inc.) following the manufacturer instructions. RNA was quantified spectro-photo-metrically by absorption measurements at 260 nm and 280 nm using the NanoDrop system (NanoDrop Technologies Inc. Delware, USA). Quality of RNA was assessed by separation in gel-electrophoresis. […]
The synthesized cDNAs were diluted 4-fold. […] The other components of the PCR reactions were 0.5 μl of 6 μM gene specific primers (synthesized by IDT Inc. USA), 12.5 μl of Brilliant SYBR green PCR master mix (2×) (Stratagene, La Jolla, Calif.) containing green jump-start Taq ready mix. […]

- inhibition at 3.75 µg/mL ([1]; 3.75 μg/ml): 58.2%
SMILES: COc1ccc(CCC(=O)c2ccc(O)cc2O)cc1 (single isomer, unassigned) [F7-9/P3, 2′,4′-dihydroxy-4-methoxydihydrochalcone]

- PTP-1B inhibitory activity (decrease of PTP-1B activity) (PTP-1B): ≤ 26%
SMILES: COc1ccc(CCC(=O)c2ccc(O)cc2O)cc1 [Compound 4, 2′,4′-dihydroxy-4-methoxydihydrochalcone]
- reduction of PTP-1B mRNA expression (PTP-1B mRNA): 29%
- repression of dexamethazone/cAMP-induced PEPCK gene expression (PEPCK gene expression): more than 50%
- repression of dexamethazone/cAMP-induced PEPCK gene expression (PEPCK gene expression; listed as DMDC): more than 50%

- PTP-1B inhibitory activity (decrease of PTP-1B activity) (PTP-1B): ≤ 36%
SMILES: COc1ccc(C(=O)CCc2ccc(O)cc2)c(O)c1 [Compound 5, 2′,4-dihydroxy-4′-methoxydihydrochalcone]

Second part, the compound before the results:

SMILES: O=C(/C=C/c1ccc(O)c(O)c1)OC1CC(O)(C(=O)O)CC(O)C1OC(=O)/C=C/c1ccc(O)c(O)c1 (single isomer, unassigned) [Sub-fraction 5-7, 4,5-Di-O-caffeoylquinic acid]
- greater inhibition of ALR2 than that caused by quercitrin ([1]; 3.75 μg/ml): 19%
- inhibition at 3.75 µg/mL ([1]; 3.75 μg/ml): 78%

SMILES: O=C(/C=C/c1ccc(O)c(O)c1)OC1CC(O)(C(=O)O)CC(O)C1OC(=O)/C=C/c1ccc(O)c(O)c1 (stereo not shown) [Compound 1, 4,5-Di-O-caffeoylquinic acid]
- ALR2 inhibitory activity (in words, compared with quercitrin) [1]: highest inhibitory activity

SMILES: O=C(CCc1ccc(O)cc1)c1ccc(O)cc1O [Compound 2, Davidigenin]
- ALR2 inhibitory activity (in words, compared with quercitrin) [1]: shows ALR2 inhibition activity

SMILES: COc1cc(O)c2c(c1)O[C@H](c1ccc(O)cc1)CC2=O [Compound 6, Sakuranetin]
- PTP-1B inhibitory activity (decrease of PTP-1B activity) (PTP-1B): ≤ 50%
- PTP-1B inhibitory activity (in words) (PTP-1B; skeletal muscle cells): decrease PTP-1B activity

SMILES: C[C@@H]1O[C@@H](Oc2c(-c3ccc(O)c(O)c3)oc3cc(O)cc(O)c3c2=O)[C@H](O)[C@H](O)[C@H]1O [quercitrin, reference compound]
- inhibition at 3.75 µg/mL ([1]; 3.75 μg/ml): 54%
